Test results as given in US9931347B2, “Pharmaceutical compound” (IOmet Pharma Ltd., priority 2013, dated 2018).

Key:
[1] = target: T1, TDO (A172 human glioblastoma cells) (Homo sapiens, UniProt P48775); assay: A172 Kynurenine cell based assay; details: 500 μM L-tryptophan, 48 hours, kynurenine by Erhlich's reagent
T1 construct: This assay utilised cancer cells which expressed either TDO or IDO; endogenous in cells; host or cells: A172 human glioblastoma cells
In short: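 A172 glioblastoma cells (30,000/well) cultured at 37° C. in phenol red-free RPMI with 10% FCS, 2 mM L-glutamine and 500 μM L-tryptophan, with or without test compound. After 48 hours, kynurenine in the supernatant was read with Erhlich's reagent (5 min) as absorbance at 490 nm.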

Recombinant human TDO = Recombinant human TDO (Homo sapiens, UniProt P48775); assay: hTDO biochemical coupled assay; details: 330 μM L-tryptophan, coupled with kynurenine formamidase
In short: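 Recombinant human TDO with 330 μM L-tryptophan in 50 mM KPO4 pH 7.0 containing EGTA, EDTA, Triton X100, ascorbate, methylene blue, catalase and kynurenine formamidase (KynB), 17 min at room temperature. Stopped with Ehrlich's reagent, 5 min, then kynurenine fluorescence read (Ex475, Em530).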

[2] = target: T2, IDO (SKOV3 human ovarian adenocarcinoma cells, IFN-γ induced) (Homo sapiens, UniProt P14902); assay: SKOV3 Kynurenine cell based assay; details: IDO induced by 500 ng/ml IFN-γ, 500 μM L-tryptophan, 48 hours
T2 construct: IDO expression was induced in the SKOV3 cells by the addition of 500 ng/ml IFN-γ; endogenous in cells; host or cells: SKOV3 human ovarian adenocarcinoma cells, induced with IFN-γ
In short: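 IFN-γ (500 ng/ml) induced IDO in SKOV3 cells, seeded at 40,000/well in phenol red-free RPMI with 10% FCS, 2 mM L-glutamine and 500 μM L-tryptophan. Cells were incubated with or without compound at 37° C for 48 h. Supernatant kynurenine was detected with Ehrlich's reagent.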

Recombinant human IDO = Recombinant human IDO (Homo sapiens, UniProt P14902); assay: hIDO biochemical coupled assay; details: 45 μM L-tryptophan, coupled with kynurenine formamidase
In short: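 Recombinant human IDO incubated in 50 mM KPO4 (pH 7.0), 0.5 mM EGTA, 0.5 mM EDTA, 0.05% Triton X100, 20 mM ascorbate, 10 μM methylene blue, 500 U/ml catalase and 50 μg/ml kynurenine formamidase. N-formylkynurenine converted to kynurenine, quantified by fluorescence after Ehrlich's reagent.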

Recombinant human TDO, sequence (P48775 whole entry): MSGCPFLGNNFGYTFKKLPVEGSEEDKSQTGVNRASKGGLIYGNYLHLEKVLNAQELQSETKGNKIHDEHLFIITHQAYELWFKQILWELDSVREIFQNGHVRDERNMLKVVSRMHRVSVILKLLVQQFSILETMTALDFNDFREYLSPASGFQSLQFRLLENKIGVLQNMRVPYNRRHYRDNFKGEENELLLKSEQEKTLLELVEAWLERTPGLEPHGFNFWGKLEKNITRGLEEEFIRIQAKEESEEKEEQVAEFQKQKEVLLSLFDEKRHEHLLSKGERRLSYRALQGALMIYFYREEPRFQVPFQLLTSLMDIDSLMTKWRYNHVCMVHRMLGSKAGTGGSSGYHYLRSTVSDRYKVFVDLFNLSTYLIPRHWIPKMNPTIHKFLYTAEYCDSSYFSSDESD
T1 sequence (P48775 whole entry): as above
Recombinant human IDO, sequence (P14902 whole entry): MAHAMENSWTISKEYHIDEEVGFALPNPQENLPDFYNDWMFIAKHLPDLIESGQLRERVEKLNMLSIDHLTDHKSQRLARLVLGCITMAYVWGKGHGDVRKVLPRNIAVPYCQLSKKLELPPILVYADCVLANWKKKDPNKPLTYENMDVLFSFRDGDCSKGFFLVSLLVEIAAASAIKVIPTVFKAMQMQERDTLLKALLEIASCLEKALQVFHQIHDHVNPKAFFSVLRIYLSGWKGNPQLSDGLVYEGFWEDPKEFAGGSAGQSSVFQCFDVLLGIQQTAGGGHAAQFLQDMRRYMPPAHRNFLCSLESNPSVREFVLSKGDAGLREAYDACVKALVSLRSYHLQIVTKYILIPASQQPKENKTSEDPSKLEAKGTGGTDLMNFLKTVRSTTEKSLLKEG
T2 sequence (P14902 whole entry): as above

| A172 Kynurenine cell based assay pIC50 [1] | hTDO biochemical assay pIC50 (Recombinant human TDO) | SKOV3 Kynurenine cell based assay pIC50 [2] | hIDO biocehmical assay pIC50 (Recombinant human IDO) | Compound |
| --- | --- | --- | --- | --- |
| +− (+− = pIC50 <4.00) | + (+ = pIC50 4.00-4.99) | +− (+− = pIC50 <4.00) | +− (+− = pIC50 <4.00) | CN(C)CC(=O)N1CCC(c2c[nH]c3ccccc23)CC1 [Compound 81] |
| + (+ = pIC50 4.00-4.99) | +− (+− = pIC50 <4.00) | + (+ = pIC50 4.00-4.99) | +− (+− = pIC50 <4.00) | CS(=O)(=O)N1CCC(c2c[nH]c3ccncc23)CC1 [Compound 175] |
| + (+ = pIC50 4.00-4.99) | +− (+− = pIC50 <4.00) | + (+ = pIC50 4.00-4.99) | +− (+− = pIC50 <4.00) | Cc1ccc(S(=O)(=O)N2CCC(c3c[nH]c4ccccc34)CC2)cc1 [Compound 9] |
| + (+ = pIC50 4.00-4.99) | +− (+− = pIC50 <4.00) | + (+ = pIC50 4.00-4.99) | +− (+− = pIC50 <4.00) | CC(=O)N1CCC(c2c[nH]c3ccncc23)CC1 [Compound 174] |
| +− (+− = pIC50 <4.00) | + (+ = pIC50 4.00-4.99) | + (+ = pIC50 4.00-4.99) | +− (+− = pIC50 <4.00) | CC(=O)N1CC=C(c2c[nH]c3ncccc23)CC1 [Compound 105] |
| + (+ = pIC50 4.00-4.99) | +− (+− = pIC50 <4.00) | +− (+− = pIC50 <4.00) | +− (+− = pIC50 <4.00) | CC(C)C(=O)N1CCC(c2c[nH]c3ccccc23)CC1 [Compound 106] |
| +− (+− = pIC50 <4.00) | +− (+− = pIC50 <4.00) | + (+ = pIC50 4.00-4.99) | +− (+− = pIC50 <4.00) | Cc1ccc2[nH]cc(C3CCN(S(=O)(=O)c4cc(C)c(Cl)cc4Cl)CC3)c2c1 [Compound 31] |
| + (+ = pIC50 4.00-4.99) | +− (+− = pIC50 <4.00) | +− (+− = pIC50 <4.00) | +− (+− = pIC50 <4.00) | CCCC(=O)N1CCC(c2c[nH]c3ccccc23)CC1 [Compound 83] |
| + (+ = pIC50 4.00-4.99) | + (+ = pIC50 4.00-4.99) | + (+ = pIC50 4.00-4.99) | +− (+− = pIC50 <4.00) | CC(=O)N1CC=C(c2c[nH]c3cccc(F)c23)CC1 [Compound 77] |
| ++ (++ = pIC50 5.00-5.99) | +− (+− = pIC50 <4.00) | + (+ = pIC50 4.00-4.99) | +− (+− = pIC50 <4.00) | CC(=O)N1CCC(c2c[nH]c3ccccc23)CC1 [Compound 1] |
| + (+ = pIC50 4.00-4.99) | +− (+− = pIC50 <4.00) | +− (+− = pIC50 <4.00) | +− (+− = pIC50 <4.00) | O=C(C1CC1)N1CCC(c2c[nH]c3ccccc23)CC1 [Compound 71] |
| ++ (++ = pIC50 5.00-5.99) | + (+ = pIC50 4.00-4.99) | + (+ = pIC50 4.00-4.99) | +− (+− = pIC50 <4.00) | Cc1ccc2[nH]cc(C3=CCN(S(C)(=O)=O)CC3)c2c1 [Compound 92] |
| + (+ = pIC50 4.00-4.99) | ++ (++ = pIC50 5.00-5.99) | + (+ = pIC50 4.00-4.99) | +− (+− = pIC50 <4.00) | CC(=O)N1CC=C(c2c[nH]c3ccc(C)cc23)CC1 [Compound 89] |
| +++ (+++ = pIC50 ≥6.00) | ++ (++ = pIC50 5.00-5.99) | + (+ = pIC50 4.00-4.99) | +− (+− = pIC50 <4.00) | CS(=O)(=O)N1CC=C(c2c[nH]c3cc(F)c(F)cc23)CC1 [Compound 168] |
| + (+ = pIC50 4.00-4.99) | +− (+− = pIC50 <4.00) | + (+ = pIC50 4.00-4.99) | +− (+− = pIC50 <4.00) | COc1ccc(Br)cc1S(=O)(=O)N1CCC(c2c[nH]c3ccc(F)cc23)CC1 [Compound 27] |
| + (+ = pIC50 4.00-4.99) | + (+ = pIC50 4.00-4.99) | +− (+− = pIC50 <4.00) | +− (+− = pIC50 <4.00) | CS(=O)(=O)N1CC=C(c2c[nH]c3cccc(F)c23)CC1 [Compound 78] |
| + (+ = pIC50 4.00-4.99) | +− (+− = pIC50 <4.00) | +− (+− = pIC50 <4.00) | +− (+− = pIC50 <4.00) | COCC(=O)N1CCC(c2c[nH]c3ccccc23)CC1 [Compound 84] |
| +− (+− = pIC50 <4.00) | +− (+− = pIC50 <4.00) | + (+ = pIC50 4.00-4.99) | +− (+− = pIC50 <4.00) | CCc1cc(Br)ccc1S(=O)(=O)N1CCC(c2c[nH]c3ccc(OC)cc23)CC1 [Compound 29] |
| + (+ = pIC50 4.00-4.99) | +− (+− = pIC50 <4.00) | +− (+− = pIC50 <4.00) | +− (+− = pIC50 <4.00) | O=C(CO)N1CCC(c2c[nH]c3ccccc23)CC1 [Compound 67] |
| ++ (++ = pIC50 5.00-5.99) | ++ (++ = pIC50 5.00-5.99) | + (+ = pIC50 4.00-4.99) | +− (+− = pIC50 <4.00) | CC(=O)N1CC=C(c2c[nH]c3cc(Cl)ccc23)CC1 [Compound 79] |
| +− (+− = pIC50 <4.00) | +− (+− = pIC50 <4.00) | ++ (++ = pIC50 5.00-5.99) | +− (+− = pIC50 <4.00) | COC(=O)c1ccccc1S(=O)(=O)N1CCC(c2c[nH]c3ccc(C#N)cc23)CC1 [Compound 56] |
| +− (+− = pIC50 <4.00) | +− (+− = pIC50 <4.00) | + (+ = pIC50 4.00-4.99) | +− (+− = pIC50 <4.00) | Cc1[nH]c2ccccc2c1C1CCN(C(=O)C2CCCO2)CC1 (stereo not shown) [Compound 17] |
| +++ (+++ = pIC50 ≥6.00) | +++ (+++ = pIC50 ≥6.00) | +− (+− = pIC50 <4.00) | +− (+− = pIC50 <4.00) | NS(=O)(=O)N1CC=C(c2c[nH]c3ccccc23)CC1 [Compound 162] |
| +− (+− = pIC50 <4.00) | +− (+− = pIC50 <4.00) | + (+ = pIC50 4.00-4.99) | +− (+− = pIC50 <4.00) | O=S(=O)(c1cc(C(F)(F)F)ccc1C(F)(F)F)N1CCC(c2c[nH]c3ccc(F)cc23)CC1 [Compound 26] |
| + (+ = pIC50 4.00-4.99) | + (+ = pIC50 4.00-4.99) | +− (+− = pIC50 <4.00) | +− (+− = pIC50 <4.00) | Cn1cnc(S(=O)(=O)N2CCC(c3c[nH]c4ccccc34)CC2)c1 [Compound 4] |
| + (+ = pIC50 4.00-4.99) | +− (+− = pIC50 <4.00) | + (+ = pIC50 4.00-4.99) | +− (+− = pIC50 <4.00) | CS(=O)(=O)N1CCC(c2c[nH]c3cnccc23)CC1 [Compound 176] |
| +− (+− = pIC50 <4.00) | +− (+− = pIC50 <4.00) | + (+ = pIC50 4.00-4.99) | +− (+− = pIC50 <4.00) | Cc1cccc2c(C3CCN(S(=O)(=O)c4ccc5c(c4)CN(C(=O)C(F)(F)F)CC5)CC3)c[nH]c12 [Compound 37] |
| + (+ = pIC50 4.00-4.99) | +− (+− = pIC50 <4.00) | + (+ = pIC50 4.00-4.99) | +− (+− = pIC50 <4.00) | Cc1ccc2[nH]cc(C3CCN(S(=O)(=O)c4ccc(C(C)(C)C)cc4)CC3)c2c1 [Compound 58] |
